This is an account of results in patent US20100286092A1, “BETA-LACTAMASE INHIBITORS” (priority 2007, published 2010).

Structures are written as SMILES.

Conditions in all cases: in the presence of a fixed amount (8 μg/mL) of Ceftazidime; CAMHB, 16-20 hours at 37° C.
Assay [1] deals with K. pneumoniae expressing the Class A Extended Spectrum Beta-Lactamase (ESBL) CTX-M-15. It is filed as cell-based. An excerpt:
(§1) To determine the ability of test compounds to potentiate the inhibition of the growth of bacterial strains producing beta-lactamase enzymes, classic cell based screening assays were employed. Four bacteria strains producing beta-lactamase enzymes were used: K. pneumoniae expressing the Class A Extended Spectrum Beta-Lactamase (ESBL) CTX-M-15, E. coli expressing the Class A ESBL SHV-5, E. cloacae expressing the Class C P99+, and K. pneumoniae expressing the Class A carbapenemase KPC-2. In order to evaluate the ability of test compounds to inhibit beta-lactamase activity, Applicants used a modification of the broth microdilution assay. The assay was conducted in Cation Adjusted Mueller Hinton Broth (CAMHB, BD #212322, BD Diagnostic Systems, Sparks, Md.). Bacteria strains were grown for 3-5 hours in CAMBH broth. All four strains were grown in presence of 50 μg/mL ampicillin to ensure resistance is maintained. In the meantime, test compounds were diluted in DMSO to a 0.1 mg/mL stock. The compounds were added to a microtiter plate and were diluted in 2-fold serial dilutions in CAMHB in a final concentration range of 8 μg/mL to 0.015 μg/ml. An overlay of CAMHB containing a cephalosporin was added to the compounds at a final static concentration of 8 μg/ml. […] Each of these compound plates are made in quadruplicate, one for each bacteria strain. In addition to the titration of test compounds the MICs of a panel of cephalosporins is also tested to ensure the strains are behaving consistently from test to test. Once the test compound and cephalosporin are added the plates can be inoculated. Inocula are conducted according to CLSI broth microdilution method. After inoculation the plates are incubated for 16-20 hours at 37° C. then the Minimal Inhibitory Concentration (MIC) of the test compound is determined visually.
(§2) Using the methodology described above, examples of the current invention were evaluated for their ability to inhibit the growth of β-lactamase producing bacteria in the presence of a β-lactam antibiotic. […] NT=Not Tested.

Assay [2] has as its system E. coli expressing the Class A ESBL SHV-5. It is filed as cell-based.
Excerpt: as §1, §2

For assay [3], the system named is K. pneumoniae expressing the Class A carbapenemase KPC-2.
Excerpt: as §1, §2

The test system of assay [4] is E. cloacae expressing the Class C P99+. It is filed as cell-based.
Excerpt: as §1, §2

As to `O=C(Cc1cccs1)N[C@@H](Cc1cccc(C(=O)O)c1O)B(O)O` [Example 1, (1R)-1-(2-thiophene-2-yl-acetylamino)-2-(2-hydroxy-3-carboxyphenyl)ethyl-1-boronic acid], in assay [1], the “MIC of example compound, K. pneumoniae CTX-M-15 + 8 μg/mL CAZ” value (“MIC … K. pneumoniae CTX-M-15 + 8 μg/mL CAZ” for short) is recorded as “C (C represents an MIC of <1 μg/mL)”. The “MIC of example compound, E. coli SHV-5 + 8 μg/mL CAZ” value (“MIC … E. coli SHV-5 + 8 μg/mL CAZ” for short) in assay [2] is recorded as “C (C represents an MIC of <1 μg/mL)”. Also, the “MIC of example compound, K. pneumoniae KPC-2 + 8 μg/mL CAZ” value (“MIC … K. pneumoniae KPC-2 + 8 μg/mL CAZ” below) in assay [3] was “C (C represents an MIC of <1 μg/mL)”.
`O=C(O)COc1cccc(CC(=O)N[C@@H](Cc2cccc(C(=O)O)c2O)B(O)O)c1` [Example 7, (1R)-1-[3-(carboxymethoxy)-phenyl]acetylamino-(3-carboxy-2-hydroxy)benzyl-methylboronic acid]: the “MIC … K. pneumoniae CTX-M-15 + 8 μg/mL CAZ” value in assay [1] was “C (C represents an MIC of <1 μg/mL)”. In assay [2], the “MIC … E. coli SHV-5 + 8 μg/mL CAZ” value was “C (C represents an MIC of <1 μg/mL)”. For the same compound, in assay [3], the “MIC … K. pneumoniae KPC-2 + 8 μg/mL CAZ” value is “C (C represents an MIC of <1 μg/mL)”.
Take `O=C(N[C@@H](Cc1cccc(C(=O)O)c1O)B(O)O)c1cccs1` [Example 11, (1R)-1-(thiophene-2-carbonyl-amino)-2-(2-hydroxy-3-carboxyphenyl)ethyl-1-boronic acid]: the “MIC … K. pneumoniae CTX-M-15 + 8 μg/mL CAZ” value in assay [1] is “C (C represents an MIC of <1 μg/mL)”. In addition, the “MIC of example compound, E. cloacae P99 AmpC + 8 μg/mL CAZ” value (“MIC … E. cloacae P99 AmpC + 8 μg/mL CAZ” for short) in assay [4] is given as “C (C represents an MIC of <1 μg/mL)”. Further, the “MIC … K. pneumoniae KPC-2 + 8 μg/mL CAZ” value in assay [3] is on record as “C (C represents an MIC of <1 μg/mL)”.
In the case of `O=C(N[C@@H](Cc1cccc(C(=O)O)c1O)B(O)O)c1ccccc1` [Example 13, (1R)-1-Benzoylamino-1-(3-carboxy-2-hydroxy)benzyl-methylboronic acid], the “MIC … K. pneumoniae CTX-M-15 + 8 μg/mL CAZ” value in assay [1] is on record as “C (C represents an MIC of <1 μg/mL)”. In assay [4], the “MIC … E. cloacae P99 AmpC + 8 μg/mL CAZ” value is listed as “C (C represents an MIC of <1 μg/mL)”. The “MIC … K. pneumoniae KPC-2 + 8 μg/mL CAZ” value in assay [3] was “C (C represents an MIC of <1 μg/mL)”.
In the case of `CC(C)C(=O)N[C@@H](Cc1cccc(C(=O)O)c1O)B(O)O` [Example 14, (1R)-1-Isobutyrylamino-1-(3-carboxy-2-hydroxy)benzyl-methylboronic acid], the “MIC … K. pneumoniae CTX-M-15 + 8 μg/mL CAZ” value in assay [1] is “C (C represents an MIC of <1 μg/mL)”. For the same compound, in assay [4], the “MIC … E. cloacae P99 AmpC + 8 μg/mL CAZ” value was “C (C represents an MIC of <1 μg/mL)”. The “MIC … K. pneumoniae KPC-2 + 8 μg/mL CAZ” value in assay [3] was “C (C represents an MIC of <1 μg/mL)”.
For the compound `O=C(O)c1cccc(C[C@H](NC(=O)C2CCCC2)B(O)O)c1O` [Example 15, (1R)-1-Cyclopentanecarbonylamino-(3-carboxy-2-hydroxy)benzyl-methylboronic acid], the “MIC … K. pneumoniae CTX-M-15 + 8 μg/mL CAZ” value in assay [1] is “C (C represents an MIC of <1 μg/mL)”. Also, the “MIC … E. cloacae P99 AmpC + 8 μg/mL CAZ” value in assay [4] is listed as “C (C represents an MIC of <1 μg/mL)”. In addition, the “MIC … K. pneumoniae KPC-2 + 8 μg/mL CAZ” value in assay [3] is listed as “C (C represents an MIC of <1 μg/mL)”.
Turning to `CCC(=O)N[C@@H](Cc1cccc(C(=O)O)c1O)B(O)O` [Example 16, (1R)-1-(propionylamino)-2-(2-hydroxy-3-carboxyphenyl)ethyl-1-boronic acid], the “MIC … K. pneumoniae CTX-M-15 + 8 μg/mL CAZ” value in assay [1] was “C (C represents an MIC of <1 μg/mL)”. Further, the “MIC … E. cloacae P99 AmpC + 8 μg/mL CAZ” value in assay [4] is “C (C represents an MIC of <1 μg/mL)”. Also, the “MIC … K. pneumoniae KPC-2 + 8 μg/mL CAZ” value in assay [3] is recorded as “C (C represents an MIC of <1 μg/mL)”.
On to `O=C(O)c1cccc(C[C@H](NC(=O)C2CC2)B(O)O)c1O` [Example 20, (1R)-1-Cyclopropanecarbonyl-amino-1-(3-carboxy-2-hydroxy)benzyl-methylboronic acid], for which the “MIC … K. pneumoniae CTX-M-15 + 8 μg/mL CAZ” value in assay [1] was “C (C represents an MIC of <1 μg/mL)”. The “MIC … E. cloacae P99 AmpC + 8 μg/mL CAZ” value in assay [4] was “C (C represents an MIC of <1 μg/mL)”. Further, the “MIC … K. pneumoniae KPC-2 + 8 μg/mL CAZ” value in assay [3] is on record as “C (C represents an MIC of <1 μg/mL)”.
Turning to `O=C(N[C@@H](Cc1cccc(C(=O)O)c1O)B(O)O)c1ccc(F)cc1` [Example 26, (1R)-1-(4-Fluorobenzoylamino)-(3-carboxy-2-hydroxy)benzyl-methylboronic acid], the “MIC … K. pneumoniae CTX-M-15 + 8 μg/mL CAZ” value in assay [1] is recorded as “C (C represents an MIC of <1 μg/mL)”. For the same compound, in assay [4], the “MIC … E. cloacae P99 AmpC + 8 μg/mL CAZ” value is “C (C represents an MIC of <1 μg/mL)”. Besides, the “MIC … K. pneumoniae KPC-2 + 8 μg/mL CAZ” value in assay [3] is reported as “C (C represents an MIC of <1 μg/mL)”.
With `COc1ccccc1C(=O)N[C@@H](Cc1cccc(C(=O)O)c1O)B(O)O` [Example 34, (1R)-1-(2-methoxybenzoylamino)-2-(2-hydroxy-3-carboxyphenyl)ethyl-1-boronic acid], the “MIC … E. coli SHV-5 + 8 μg/mL CAZ” value in assay [2] was “A (A represents an MIC>8 μg/mL)”. Moreover, in assay [3], the “MIC … K. pneumoniae KPC-2 + 8 μg/mL CAZ” value was “C (C represents an MIC of <1 μg/mL)”.
Turning to `O=C(N[C@@H](Cc1cccc(C(=O)O)c1O)B(O)O)c1ccc(O)cc1` [Example 36, (1R)-1-(4-Hydroxybenzoyl)-amino-1-(3-carboxy-2-hydroxy)benzyl-methylboronic acid], the “MIC … K. pneumoniae CTX-M-15 + 8 μg/mL CAZ” value in assay [1] is given as “C (C represents an MIC of <1 μg/mL)”. Also, the “MIC … E. cloacae P99 AmpC + 8 μg/mL CAZ” value in assay [4] is reported as “C (C represents an MIC of <1 μg/mL)”. The “MIC … K. pneumoniae KPC-2 + 8 μg/mL CAZ” value in assay [3] is reported as “C (C represents an MIC of <1 μg/mL)”.
Regarding `CC(=O)NCC(=O)N[C@@H](Cc1cccc(C(=O)O)c1O)B(O)O` [Example 37, (1R)-1-(2-acetamidoacetylamino)-2-(2-hydroxy-3-carboxyphenyl)ethyl-1-boronic acid], in assay [1], the “MIC … K. pneumoniae CTX-M-15 + 8 μg/mL CAZ” value is given as “C (C represents an MIC of <1 μg/mL)”. Further, the “MIC … E. cloacae P99 AmpC + 8 μg/mL CAZ” value in assay [4] is “C (C represents an MIC of <1 μg/mL)”. Also, in assay [3], the “MIC … K. pneumoniae KPC-2 + 8 μg/mL CAZ” value was “C (C represents an MIC of <1 μg/mL)”.
For the compound `Cn1nc(-c2ccccc2)cc1C(=O)N[C@@H](Cc1cccc(C(=O)O)c1O)B(O)O` [Example 44, (1R)-1-(1-methyl-3-phenyl-1H-pyrazole-5-carbonyl-amino)-2-(2-hydroxy-3-carboxyphenyl)ethyl-1-boronic acid], the “MIC … K. pneumoniae CTX-M-15 + 8 μg/mL CAZ” value in assay [1] is given as “A (A represents an MIC>8 μg/mL)”. In addition, the “MIC … E. coli SHV-5 + 8 μg/mL CAZ” value in assay [2] is given as “A (A represents an MIC>8 μg/mL)”.
As for `O=C(N[C@@H](Cc1cccc(C(=O)O)c1O)B(O)O)c1ccno1` [Example 46, (1R)-1-(isoxazole-5-carbonyl-amino)-2-(2-hydroxy-3-carboxyphenyl)ethyl-1-boronic acid], the “MIC … K. pneumoniae CTX-M-15 + 8 μg/mL CAZ” value in assay [1] is recorded as “C (C represents an MIC of <1 μg/mL)”. Also, the “MIC … E. cloacae P99 AmpC + 8 μg/mL CAZ” value in assay [4] is listed as “C (C represents an MIC of <1 μg/mL)”. In assay [3], the “MIC … K. pneumoniae KPC-2 + 8 μg/mL CAZ” value is reported as “C (C represents an MIC of <1 μg/mL)”.
Regarding `Cc1nc(-c2cccc(C(=O)N[C@@H](Cc3cccc(C(=O)O)c3O)B(O)O)c2)no1` [Example 47, (1R)-1-[3-(5-methyl-[1,2,4]oxadiazol-3-yl)-benzoyl]-amino-1-(3-carboxy-2-hydroxy)benzyl-methylboronic acid], the “MIC … K. pneumoniae CTX-M-15 + 8 μg/mL CAZ” value in assay [1] is recorded as “A (A represents an MIC>8 μg/mL)”. Besides, the “MIC … E. coli SHV-5 + 8 μg/mL CAZ” value in assay [2] was “A (A represents an MIC>8 μg/mL)”.
Regarding `O=C(N[C@@H](Cc1cccc(C(=O)O)c1O)B(O)O)c1ccc(N2CCOCC2)nc1` [Example 48, (1R)-1-(6-morpholin-4-yl-pyridine-3-carbonyl)-amino-1-(3-carboxy-2-hydroxy)benzyl-methylboronic acid], the “MIC … E. coli SHV-5 + 8 μg/mL CAZ” value in assay [2] is “A (A represents an MIC>8 μg/mL)”. For the same compound, in assay [3], the “MIC … K. pneumoniae KPC-2 + 8 μg/mL CAZ” value was “C (C represents an MIC of <1 μg/mL)”.
